How the values were obtained:
Format in all cases: ADME
Flower [1] = experiment: Drug recovery in flower of Gerbera jamesonii grown in closed hydroponic system at 45 g applied through nutrient solution measured on day 56 post-treatment by gas chromatographic analysis; conditions: in vivo, other
Flower [2] = experiment: Drug recovery in flower of Gerbera jamesonii grown in closed hydroponic system at 22.5 g applied through nutrient solution measured on day 56 post-treatment by gas chromatographic analysis; conditions: in vivo, other
Leaf [3] = experiment: Drug recovery in leaf of Gerbera jamesonii grown in closed hydroponic system at 45 g applied through nutrient solution measured on day 56 post-treatment by gas chromatographic analysis; conditions: in vivo, other
Leaf [4] = experiment: Drug recovery in leaf of Gerbera jamesonii grown in closed hydroponic system at 22.5 g applied through nutrient solution measured on day 56 post-treatment by gas chromatographic analysis; conditions: in vivo, other
Root [5] = experiment: Drug recovery in root of Gerbera jamesonii grown in closed hydroponic system at 45 g applied through nutrient solution measured on day 56 post-treatment by gas chromatographic analysis; conditions: in vivo, other
Root [6] = experiment: Drug recovery in root of Gerbera jamesonii grown in closed hydroponic system at 22.5 g applied through nutrient solution measured on day 56 post-treatment by gas chromatographic analysis; conditions: in vivo, other
Leaf [7] = experiment: Drug level in leaf of Gerbera jamesonii grown in closed hydroponic system assessed per fresh weight at 375 mg/l applied through nutrient solution measured on day 50 post-treatment in summer by gas chromatographic analysis; conditions: other
Flower [8] = experiment: Drug level in flower of Gerbera jamesonii grown in closed hydroponic system assessed per fresh weight at 750 mg/l applied through nutrient solution measured on day 121 post-treatment in winter by gas chromatographic analysis; conditions: other
Flower [9] = experiment: Drug level in flower of Gerbera jamesonii grown in closed hydroponic system assessed per fresh weight at 375 mg/l applied through nutrient solution measured on day 121 post-treatment in winter by gas chromatographic analysis; conditions: other
Flower [10] = experiment: Drug level in flower of Gerbera jamesonii grown in closed hydroponic system assessed per fresh weight at 750 mg/l applied through nutrient solution measured on day 56 post-treatment in winter by gas chromatographic analysis; conditions: other
Flower [11] = experiment: Drug level in flower of Gerbera jamesonii grown in closed hydroponic system assessed per fresh weight at 375 mg/l applied through nutrient solution measured on day 56 post-treatment in winter by gas chromatographic analysis; conditions: other
Flower [12] = experiment: Drug level in flower of Gerbera jamesonii grown in closed hydroponic system at 750 mg/l applied through nutrient solution measured 48 hr post-treatment in winter by gas chromatographic analysis; conditions: other
Flower [13] = experiment: Drug level in flower of Gerbera jamesonii grown in closed hydroponic system at 375 mg/l applied through nutrient solution measured 48 hr post-treatment in winter by gas chromatographic analysis; conditions: other
Leaf [14] = experiment: Drug level in leaf of Gerbera jamesonii grown in closed hydroponic system assessed per fresh weight at 750 mg/l applied through nutrient solution measured on day 121 post-treatment in winter by gas chromatographic analysis; conditions: other
Leaf [15] = experiment: Drug level in leaf of Gerbera jamesonii grown in closed hydroponic system assessed per fresh weight at 375 mg/l applied through nutrient solution measured on day 121 post-treatment in winter by gas chromatographic analysis; conditions: other
Leaf [16] = experiment: Drug level in leaf of Gerbera jamesonii grown in closed hydroponic system assessed per fresh weight at 750 mg/l applied through nutrient solution measured on day 56 post-treatment in winter by gas chromatographic analysis; conditions: other
Leaf [17] = experiment: Drug level in leaf of Gerbera jamesonii grown in closed hydroponic system assessed per fresh weight at 375 mg/l applied through nutrient solution measured on day 56 post-treatment in winter by gas chromatographic analysis; conditions: other
Root [18] = experiment: Drug level in root of Gerbera jamesonii grown in closed hydroponic system assessed per fresh weight at 750 mg/l applied through nutrient solution measured on day 121 post-treatment in winter by gas chromatographic analysis; conditions: other
Root [19] = experiment: Drug level in root of Gerbera jamesonii grown in closed hydroponic system assessed per fresh weight at 375 mg/l applied through nutrient solution measured on day 121 post-treatment in winter by gas chromatographic analysis; conditions: other
Root [20] = experiment: Drug level in root of Gerbera jamesonii grown in closed hydroponic system assessed per fresh weight at 750 mg/l applied through nutrient solution measured on day 17 post-treatment in winter by gas chromatographic analysis; conditions: other
Root [21] = experiment: Drug level in root of Gerbera jamesonii grown in closed hydroponic system assessed per fresh weight at 375 mg/l applied through nutrient solution measured on day 17 post-treatment in winter by gas chromatographic analysis; conditions: other

For `Nc1nc(N)nc(NC2CC2)n1` [CYROMAZINE], the Drug recovery (Flower [1]) was 27%, the Drug recovery (Flower [2]) was 44% and the Drug recovery (Leaf [3]) was 27%. For the same compound, the Drug recovery (Leaf [4]) was 44%, the Drug recovery (Root [5]) was 27% and the Drug recovery (Root [6]) was 44%. The Drug uptake (Leaf [7]) was 65.8 mg/kg, the Drug uptake (Flower [8]) was 2.2 mg/kg and the Drug uptake (Flower [9]) was 1.9 mg/kg. For the same compound, the Drug uptake (Flower [10]) was 48.2 mg/kg, the Drug uptake (Flower [11]) was 32.3 mg/kg and the Drug uptake (Flower [12]) was “Not Active”. For the same compound, the Drug uptake (Flower [13]) was “Not Active”, the Drug uptake (Leaf [14]) was 61.8 mg/kg and the Drug uptake (Leaf [15]) was 51.5 mg/kg. The Drug uptake (Leaf [16]) was 129.7 mg/kg, the Drug uptake (Leaf [17]) was 105 mg/kg and the Drug uptake (Root [18]) was 15.1 mg/kg. It also gave a Drug uptake (Root [19]) of 12.2 mg/kg, a Drug uptake (Root [20]) of 93 mg/kg and a Drug uptake (Root [21]) of 105 mg/kg.

— ChEMBL document CHEMBL3046658, “Fate of cyromazine applied in nutrient solution to a gerbera (Gerbera jamesonii) crop grown in a closed hydroponic system” (Crop Prot, 2007)
